For assay [1], the system named is IL-2 production in human peripheral blood mononuclear cell (PBMC). Description: Human PBMC CD3/CD28-induced IL-2 production inhibition test. The assay is classed as cell-based. The conditions noted are these: 48 h, CD3/CD28 stimulation, incubation for 2 days, ELISA. From the text: Human Peripheral Blood Mononuclear Cell (PBMC) CD3/CD28-Induced IL-2 Production Inhibition Test
PBMC was separated and collected by using Ficoll-Paque (17-1440-02 manufactured by GE Healthcare Japan Corp.) from blood collected from healthy human adult in the presence of heparin. RPMI1640 medium (manufactured by GIBCO/Thermo Fisher Scientific, Inc., REF. 11875) containing 10% FBS (manufactured by GIBCO/Thermo Fisher Scientific, Inc. REF. 10082) and containing a test compound dissolved in DMSO and 2 μg/mL anti-hCD28 (manufactured by R&D Systems, Inc., Cat. No. MAB342) was added at 100 μL/well to T cell Activation Plate Anti-Human CD3 96-well plate (manufactured by Corning Inc., REF. 354725), and subsequently, a PBMC suspension adjusted such that the number of cells was 2×10^6 cells/mL was added at 100 μL/well (final DMSO concentration: 0.1%). A RPMI1640 medium containing 10% FBS and containing 0.1% DMSO and 2 μg/mL anti-hCD28 was similarly added to wells not supplemented with the test compound. After incubation for 2 days in a carbon dioxide incubator, the culture supernatant was collected. The collected culture supernatant was stored at −20° C. until IL-2 content measurement.
In the measurement of IL-2 content in the culture supernatant, a sandwich ELISA kit Quantikine Human IL-2 (manufactured by R&D Systems, Inc., Cat. No. S2050) was used. The IL-2 content of each sample was calculated from the calibration curve of Standard IL-2 included in the kit. When the amount of IL-2 produced by CD3/CD28 stimulation in the case of the addition of only DMSO was defined as 100%, the rate of inhibition of IL-2 production at each concentration of the test compound was calculated. A test compound concentration inhibiting 50% of IL-2 production was calculated as an IC50 value (nM) from the concentration of the added test compound and the rate of inhibition of IL-2 production by the test compound by using EXSUS (version 8.0.0 or version 8.0.1, manufactured by CAC Exicare Corp.).
On the technique in general: An ELISA detects its analyte on a solid surface through an enzyme-linked reagent.

In assay [2] the test system is human large intestine cancer cell line (HCT-116). Nature of the assay: Human large intestine cancer (HCT-116) cell growth inhibition test. Type of assay: cell-based. The conditions noted are these: 72 h, HCT-116, culture for 3 days, sulforhodamine B absorbance. The gist of the method:
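HCT-116 cells seeded at 1.0×10^3 cells/well in McCoy's 5a with 10% FBS, then exposed to compound (0.1% DMSO final) for 3 days. Growth measured by sulforhodamine B absorbance; IC50 derived from concentration-inhibition data.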

The target of a further assay is T1, CDK7 (Homo sapiens, UniProt P50613).
T1 construct: purchased Carna Biosciences, Inc. 04-108
T1 sequence (P50613 whole entry): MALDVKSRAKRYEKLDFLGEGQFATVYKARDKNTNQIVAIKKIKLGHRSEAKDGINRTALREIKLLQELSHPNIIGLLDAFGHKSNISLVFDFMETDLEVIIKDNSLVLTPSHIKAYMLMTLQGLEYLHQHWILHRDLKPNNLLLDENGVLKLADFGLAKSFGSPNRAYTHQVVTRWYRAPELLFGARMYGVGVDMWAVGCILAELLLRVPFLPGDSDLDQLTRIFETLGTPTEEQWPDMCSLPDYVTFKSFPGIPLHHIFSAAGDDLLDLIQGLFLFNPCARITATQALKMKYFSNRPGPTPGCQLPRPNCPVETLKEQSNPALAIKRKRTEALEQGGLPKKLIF
T1 sequence (P51946 whole entry partner): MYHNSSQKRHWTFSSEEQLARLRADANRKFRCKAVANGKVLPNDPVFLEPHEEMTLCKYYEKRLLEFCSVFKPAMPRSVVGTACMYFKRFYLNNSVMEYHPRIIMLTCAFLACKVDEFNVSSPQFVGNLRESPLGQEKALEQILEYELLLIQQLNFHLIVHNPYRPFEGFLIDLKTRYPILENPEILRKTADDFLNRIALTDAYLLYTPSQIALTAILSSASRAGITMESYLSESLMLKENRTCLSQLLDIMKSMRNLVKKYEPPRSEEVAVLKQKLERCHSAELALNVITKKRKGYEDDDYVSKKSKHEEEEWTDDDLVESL
T1 sequence (P51948 whole entry partner): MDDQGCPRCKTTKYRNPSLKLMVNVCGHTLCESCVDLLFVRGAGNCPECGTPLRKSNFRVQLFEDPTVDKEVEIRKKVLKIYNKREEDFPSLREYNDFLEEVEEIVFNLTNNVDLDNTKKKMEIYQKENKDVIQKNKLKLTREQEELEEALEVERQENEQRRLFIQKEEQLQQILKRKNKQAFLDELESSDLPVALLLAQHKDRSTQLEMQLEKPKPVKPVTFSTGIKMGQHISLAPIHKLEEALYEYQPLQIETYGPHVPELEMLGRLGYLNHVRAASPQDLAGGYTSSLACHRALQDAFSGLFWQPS
Description: CDK7 enzyme inhibition test. Type of assay: biochemical. The conditions noted are these: Ki=IC50/(1+S/Km); 33P bound to MBP, [γ-33P]ATP, 30° C. for 20 minutes; read-out: Ki value of CDK7 inhibitory activity. The procedure, abridged:
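Recombinant CDK7 with MBP substrate and [γ-33P]ATP (500 μM solution, diluted into the mix) in HEPES pH 7.4/DTT/Triton X-100/MgCl2, 20 min at 30 °C. TCA-precipitated 33P-MBP counted by scintillation; IC50 from inhibition, Ki = IC50/(1+S/Km).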

In assay [3] the test system is Human keratinocytes (NHEK-Neo Pooled). Nature of the assay: Human keratinocyte growth inhibition assay. The assay is classed as cell-based. The conditions noted are these: 48 h, culture for 2 days, Cell Counting Kit-8. The protocol: Human Keratinocyte Growth Inhibition Assay
The measurement of a human keratinocyte growth inhibitory effect was carried out by modifying the method of Schafer et al. (British Journal of Pharmacology, 159, 842 (2011)).
Human keratinocytes (NHEK-Neo Pooled, manufactured by Lonza Group AG, Cat. No. 00192906) were cultured in KGM-Gold Bullet Kit (manufactured by Lonza Group AG, Cat. No. 00192060) and inoculated at 2.0×10^3 cells/well to a 96-well plate. After overnight culture in a carbon dioxide incubator, a test compound dissolved in DMSO (final DMSO concentration: 0.1%) was added and left standing in a carbon dioxide incubator. After culture for 2 days, the absorbance thereof was measured by using Cell Counting Kit-8 (343-07623 manufactured by Dojindo Laboratories)).
The rate of inhibition of cell growth at each concentration was calculated from the test compound concentration and the absorbance of Cell Counting Kit-8, and the concentration of the test compound necessary for inhibiting 50% of cell growth (IC50 value) was calculated by using EXSUS (version 8.0.0 or version 8.0.1, manufactured by CAC Exicare Corp.).

The subject of assay [4] is mouse imiquimod-induced psoriasis model. Nature of the assay: Ear thickening suppression test using mouse imiquimod-induced psoriasis model. Type of assay: in vivo. Conditions: topical, 120 h, application of a 0.01% methanol solution for 4 days, thickness measured on day 5, BALB/c mice, read-out: rate of inhibition of increase in right auricle thickness. The protocol:
Ear Thickening Suppression Test Using Mouse Imiquimod-Induced Psoriasis Model
An imiquimod-induced psoriasis model test was carried out by modifying the method of Leslie van der Fits et al. (J. Immunol. 182, 5836 (2009)). BALB/c mice were used (female, supplied by Charles River Laboratories Japan, Inc.) as laboratory animals. On the start day of the test, the thicknesses of the right auricles of the mice were measured with a thickness gauge (model SMD-565J manufactured by TECLOCK Corp.). A test compound solution or only a solvent was applied or orally administered, and after 60 minutes, 5 mg of imiquimod (Beselna Cream 5% manufactured by Mochida Pharmaceutical Co., Ltd.) was applied to the insides of the right auricles. The test compound solution or solvent administration and the imiquimod application were carried out for 4 days, and the thicknesses of the right auricles were measured again on day 5. When increase in the thicknesses of the right auricles of the solvent-administered group on day 5 was defined as 100%, the rate of inhibition of increase (%) at each dose of the test compound was calculated.

SMILES strings stand for the structures.

By IC50 is commonly meant the concentration at which inhibition is half-maximal. For orientation: Ki means the dissociation constant of the complex between target and ligand, obtained from inhibition or displacement.

On to `CC1(C)c2[nH]nc(NC(=O)C3([Si](C)(C)C)CCC3)c2CN1C(=O)NC(CO)c1ccccc1F` (stereo not drawn) [IV-510, N-[1-(2-Fluorophenyl)-2-hydroxyethyl]-6,6-dimethyl-3-[1-(trimethylsilyl)cyclobutanecarboxamido]-4,6-dihydropyrrolo[3,4-c]pyrazole-5(1H)-carboxamide], for which the values for the IC50 in assay [1] and in assay [2] were at most 50 nM and at most 500 nM, respectively. Moreover, the Ki on CDK7 is at most 50 nM.

Take `CC(OC1CCCCC1)C(=O)N1Cc2c(NC(=O)C3([Si](C)(C)C)CCC3)n[nH]c2C1(C)C` (stereo not drawn) [IV-1255, N-{5-[2-(Cyclohexyloxy)propanoyl]-6,6-dimethyl-1,4,5,6-tetrahydropyrrolo[3,4-c]pyrazol-3-yl}-1-(trimethylsilyl)cyclobutanecarboxamide]: the IC50 was at most 50 nM in assay [1] and at most 500 nM in assay [2]. Moreover, at CDK7, the Ki is at most 50 nM.

On to `CC(C)(O)[C@@H](NC(=O)N1Cc2c(NC(=O)C3([Si](C)(C)C)CC3)n[nH]c2C1(C)C)c1ccccc1` [III-170, (S)—N-(2-Hydroxy-2-methyl-1-phenylpropyl)-6,6-dimethyl-3-[1-(trimethylsilyl)cyclopropanecarboxamido]-4,6-dihydropyrrolo[3,4-c]pyrazole-5(1H)-carboxamide], for which the results for the IC50 in assay [1], in assay [2] and in assay [3] were at most 50 nM, at most 500 nM and at most 500 nM, respectively. Moreover, the Ki at CDK7 was at most 50 nM.

Consider `CC1(C)c2[nH]nc(NC(=O)C3([Si](C)(C)C)CCC3)c2CN1C(=O)NC(C#CCO)c1ccccc1` (racemic) [IV-378, N-(4-Hydroxy-1-phenyl-2-butyn-1-yl)-6,6-dimethyl-3-[1-(trimethylsilyl)cyclobutanecarboxamido]-4,6-dihydropyrrolo[3,4-c]pyrazole-5(1H)-carboxamide], for which the IC50 in assay [2] and in assay [3] was at most 500 nM each time. Also, the Ki at CDK7 was at most 50 nM.

Turning to `CO[C@@H](C(=O)N1Cc2c(NC(=O)C3([Si](C)(C)C)CC3)n[nH]c2C1(C)C)c1ccccc1` [III-1059, (R)—N-[5-(2-Methoxy-2-phenylacetyl)-6,6-dimethyl-1,4,5,6-tetrahydropyrrolo[3,4-c]pyrazol-3-yl]-1-(trimethylsilyl)cyclopropanecarboxamide], in assay [4], the inhibition in vivo at 0.01 % was at least 50%. In addition, the IC50 in assay [2] and in assay [3] was at most 500 nM each time. For the same compound, the Ki at CDK7 was at most 50 nM.

With `CC1(C)c2[nH]nc(NC(=O)C3([Si](C)(C)C)CCC3)c2CN1C(=O)N[C@H](CO)c1cccc(F)c1` [IV-519, (S)—N-[1-(3-Fluorophenyl)-2-hydroxyethyl]-6,6-dimethyl-3-[1-(trimethylsilyl)cyclobutanecarboxamido]-4,6-dihydropyrrolo[3,4-c]pyrazole-5(1H)-carboxamide], the IC50 was at most 50 nM in assay [1], at most 500 nM in assay [2] and at most 500 nM in assay [3]. Besides, the Ki at CDK7 is at most 50 nM.

On to `CC1(C)c2[nH]nc(NC(=O)C3([Si](C)(C)C)CCC3)c2CN1C(=O)N[C@H](COC(F)F)c1ccccc1` [IV-131, (S)—N-[2-(Difluoromethoxy)-1-phenylethyl]-6,6-dimethyl-3-[1-(trimethylsilyl)cyclobutanecarboxamido]-4,6-dihydropyrrolo[3,4-c]pyrazole-5(1H)-carboxamide], for which the IC50 in assay [2] and in assay [3] was at most 500 nM throughout.

For `CC1(C)c2[nH]nc(NC(=O)C3([Si](C)(C)C)CCC3)c2CN1C(=O)N[C@H](CO)c1ccc(F)cc1` [IV-527, (S)—N-[1-(4-Fluorophenyl)-2-hydroxyethyl]-6,6-dimethyl-3-[1-(trimethylsilyl)cyclobutanecarboxamido]-4,6-dihydropyrrolo[3,4-c]pyrazole-5(1H)-carboxamide], the IC50 in assay [1] was at most 50 nM; in assay [2] it was at most 500 nM; in assay [3] it was at most 500 nM. At CDK7, the Ki is at most 50 nM.

The values above are taken from patent US10131679B2, “Substituted dihydropyrrolopyrazole compound” (UBE INDUSTRIES, LTD., priority 2014, dated 2018).
